Test results reported in article PMC13586173, “Synthetic cannabinoid receptor agonists inhibit the cardiac voltage-gated potassium channel hERG” (Acta Pharmacologica Sinica, 2026).
Several values for one entry are separate records, joined by “and”; a condition that tells them apart may be missing. Equal entries are not always repeated. Entries after “also recorded” stand apart in the source; their conditions may differ. Where two headings read alike, the source gives them in different places.

Key:
[1] = target: hERG (KV11.1) (Homo sapiens, UniProt Q12809); assay: Automated planar patch-clamp (APC, QPatch II 48), voltage-ladder protocol, CHO cells stably expressing human hERG; details: for hERG channel Efficacy (max reduction in Gmax) Gmin: 0 = complete reduction; for effect on Gmax of hERG (in words): APC concentration-response, 1.11 to 30 µM
Sequence of hERG (KV11.1) (Q12809 whole entry): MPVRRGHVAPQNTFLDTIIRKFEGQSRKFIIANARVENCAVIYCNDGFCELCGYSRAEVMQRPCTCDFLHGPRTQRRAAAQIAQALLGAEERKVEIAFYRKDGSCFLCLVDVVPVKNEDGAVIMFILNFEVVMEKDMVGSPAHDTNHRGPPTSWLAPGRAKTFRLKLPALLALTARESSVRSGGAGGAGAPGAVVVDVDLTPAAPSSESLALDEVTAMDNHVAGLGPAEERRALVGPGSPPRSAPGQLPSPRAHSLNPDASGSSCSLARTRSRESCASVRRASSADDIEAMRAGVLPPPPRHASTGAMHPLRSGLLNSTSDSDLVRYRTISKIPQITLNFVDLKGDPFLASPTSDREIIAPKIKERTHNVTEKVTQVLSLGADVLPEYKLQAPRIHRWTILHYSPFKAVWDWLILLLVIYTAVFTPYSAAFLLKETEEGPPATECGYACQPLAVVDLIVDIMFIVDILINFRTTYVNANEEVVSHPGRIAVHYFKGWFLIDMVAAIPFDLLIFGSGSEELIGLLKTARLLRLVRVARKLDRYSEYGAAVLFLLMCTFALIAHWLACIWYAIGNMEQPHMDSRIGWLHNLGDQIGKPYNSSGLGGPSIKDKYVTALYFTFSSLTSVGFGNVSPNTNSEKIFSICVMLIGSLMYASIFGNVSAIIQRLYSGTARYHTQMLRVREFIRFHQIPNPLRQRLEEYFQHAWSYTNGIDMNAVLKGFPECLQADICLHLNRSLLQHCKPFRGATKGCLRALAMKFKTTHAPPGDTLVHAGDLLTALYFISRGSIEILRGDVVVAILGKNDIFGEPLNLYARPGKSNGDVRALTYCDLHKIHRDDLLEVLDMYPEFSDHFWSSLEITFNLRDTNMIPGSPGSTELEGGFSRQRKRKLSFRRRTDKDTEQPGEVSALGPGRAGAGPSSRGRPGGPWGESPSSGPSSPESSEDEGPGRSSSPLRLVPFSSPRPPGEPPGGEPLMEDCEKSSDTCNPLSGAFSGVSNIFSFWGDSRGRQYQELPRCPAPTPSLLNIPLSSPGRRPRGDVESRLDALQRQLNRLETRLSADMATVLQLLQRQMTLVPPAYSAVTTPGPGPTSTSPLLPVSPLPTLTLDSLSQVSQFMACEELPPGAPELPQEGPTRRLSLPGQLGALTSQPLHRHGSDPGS
Excerpt: To assess the effect of a large set of SCRAs on hERG (see SI Table I and SI Fig. S1 for a list of the 36 included SCRAs and corresponding structures), we used the automated planar patch-clamp (APC) technique on mammalian Chinese hamster ovary (CHO) cells stably expressing human hERG. […] We employed a voltage-ladder protocol to obtain information on SCRA effects on the channel’s voltage dependence of activation (V50) and maximal conductance (Gmax) (both determined from Boltzmann fits of the instantaneous tail currents; see Methods for details).
Stably expressing cell lines “CHO-hERG DUO” (here referred to as hERG; gene: KCNH2) and “CHO-KVLQT1/mink” (here referred to as KV7.1/KCNE1; gene: KCNQ1/KCNE1), (B’SYS GmBH, Witterswil, Switzerland) were used to study whole-cell K^+ currents on a QPatch II 48 APC system (Sophion Bioscience A/S, Ballerup, Denmark). Cell culture and passaging were performed in accordance with standard operating procedures. Cells were harvested in serum-free medium with Detachin^TM (Genlantis, CA, USA) immediately prior to experiments. For MPC on transient cell lines, CHO-K1 CCL-61 cells (ATCC, Manassas, VA, USA) were cultured in Ham’s F-12 medium supplemented with 10% fetal bovine serum (FBS) and 100 U/mL penicillin–100 µg/mL streptomycin (Gibco, Thermo Fisher Scientific, Waltham, MA, USA). Transfection was carried out using JetOPTIMUS® reagent (Polyplus, Strasbourg, France) according to the manufacturer’s protocol. Briefly, 80,000 cells were seeded per well in a 12-well plate and transfected with 300 ng of pcDNA3-GFP plasmid, 700 ng of pcDNA3-hERG plasmid with either the wild-type or mutant channels (S624A, S649A, or Y652A), and […] of JetOPTIMUS. After 8 h, cells were detached and reseeded at a density of 30,000 cells per well onto several poly-D-lysine-coated glass coverslips placed in a 12-well plate. For the CB1 receptor activity assay, the AequoScreen® recombinant Chinese hamster ovary (CHO) K1 cell line, stably expressing the human CB1 receptor (ES-110-A), was used (Revvity, Sollentuna, Sweden).
Automated patch-clamp recordings were performed at 22 °C. Freshly harvested cell suspensions (2–3 million cells/mL) were prepared for experiments by the QPatch II 48 automated cell preparation unit. Cells were centrifuged for 150 s at 150 × g and washed twice with the extracellular recording solution. Cells were handled by the integrated pipetting robot and added to the 48 experiment sites on the planar patch-clamp consumable QPlate. Each experiment site contained an individual pair of recording electrodes and a silicon/glass biochip embedded in the flow channels. Single-cell patch recordings (n = 1 is defined as one single-cell patch) and population patch recordings (up to 10 cells per well, n = 1 is defined as one population patch) were performed for hERG and for KV7.1/KCNE1, respectively. Cells were applied, positioned and sealed to the patch holes by a mild suction protocol; whole-cell access was then achieved by a stronger suction pulse.
The intracellular solution contained (in mM): 100 KCl, 4.3 CaCl2, 1.4 MgCl2, 25/10 KOH/EGTA, 24 KF, 10 HEPES, and 4 Mg-ATP (hERG) or 4 Na-ATP (KV7.1/KCNE1). […] The compounds were pre-diluted in DMSO, and the final concentration of DMSO (0.3%) was equal in all recording solutions to control for vehicle effects. The compounds made no contact with plastics following dilution in extracellular solution.
An overview of experimental conditions is provided in SI Table VII, Square voltage pulses in a voltage ladder protocol were used to study current/voltage (I(V)) relationships. Each voltage protocol was first run three times in the presence of vehicle (extracellular solution supplemented with 0.3% DMSO), the 3rd serving as the baseline. Voltage protocols were repeated in the presence of 4 cumulatively rising concentrations of test compound, followed by application of vehicle for recovery.

[2] = target: T1, human CB1 receptor (Homo sapiens, UniProt P21554); assay: AequoScreen intracellular calcium release assay, CHO-K1 cells stably expressing CB1; format: cell-based
T1 construct: host or cells: CHO-K1 stably expressing CB1, apoaequorin and Gα16
T1 sequence (P21554 whole entry): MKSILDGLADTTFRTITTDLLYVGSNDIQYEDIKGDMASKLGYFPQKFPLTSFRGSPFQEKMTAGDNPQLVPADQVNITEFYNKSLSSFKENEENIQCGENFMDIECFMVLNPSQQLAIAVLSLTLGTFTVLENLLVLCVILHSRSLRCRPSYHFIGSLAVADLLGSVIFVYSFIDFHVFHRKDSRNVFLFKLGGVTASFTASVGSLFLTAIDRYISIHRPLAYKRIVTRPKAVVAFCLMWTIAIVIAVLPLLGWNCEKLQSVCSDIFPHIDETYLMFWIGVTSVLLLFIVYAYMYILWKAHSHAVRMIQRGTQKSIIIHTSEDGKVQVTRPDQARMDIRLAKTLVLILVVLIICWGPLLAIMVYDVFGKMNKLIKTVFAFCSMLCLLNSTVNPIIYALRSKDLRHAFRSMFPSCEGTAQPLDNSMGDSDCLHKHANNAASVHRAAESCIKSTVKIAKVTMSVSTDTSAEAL

[3] = target: KV7.1/KCNE1 (Homo sapiens, UniProt P51787); assay: Automated patch-clamp (APC, population patch), CHO cells stably expressing human KV7.1/KCNE1; format: cell-based; details: for KV7.1/KCNE1 channel Efficacy (max reduction in Gmax) Gmin, marked *: * Greatest efficacy achieved with a concentration between 10 and 30 µM (no fit); for Gmax effect on hERG versus KV7.1/KCNE1 (in words): 10 µM, both channels by APC; for KV7.1/KCNE1 channel Efficacy (max reduction in Gmax) Gmin: 1 = no reduction of Gmax, 0 = complete reduction
Sequence of KV7.1/KCNE1 (P51787 whole entry): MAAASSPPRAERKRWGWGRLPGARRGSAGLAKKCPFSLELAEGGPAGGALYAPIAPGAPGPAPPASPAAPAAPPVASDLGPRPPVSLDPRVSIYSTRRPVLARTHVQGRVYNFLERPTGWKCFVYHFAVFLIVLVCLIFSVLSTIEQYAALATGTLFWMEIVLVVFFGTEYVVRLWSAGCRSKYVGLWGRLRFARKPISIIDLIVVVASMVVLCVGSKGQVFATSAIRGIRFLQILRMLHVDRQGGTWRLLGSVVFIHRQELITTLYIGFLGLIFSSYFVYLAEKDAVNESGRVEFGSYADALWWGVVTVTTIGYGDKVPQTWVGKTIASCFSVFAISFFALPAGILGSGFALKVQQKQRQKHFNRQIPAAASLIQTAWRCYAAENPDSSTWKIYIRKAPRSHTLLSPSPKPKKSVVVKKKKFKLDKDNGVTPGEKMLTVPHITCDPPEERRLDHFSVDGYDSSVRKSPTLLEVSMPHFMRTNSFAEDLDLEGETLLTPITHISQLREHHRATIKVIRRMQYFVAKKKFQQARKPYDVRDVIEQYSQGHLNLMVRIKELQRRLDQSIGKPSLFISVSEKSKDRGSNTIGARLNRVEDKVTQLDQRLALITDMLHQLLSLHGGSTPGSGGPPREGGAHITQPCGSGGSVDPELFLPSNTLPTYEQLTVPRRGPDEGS
Procedure: Both hERG and KV7.1/KCNE1 contribute to cardiomyocyte repolarization (Fig. 1g). Inhibition of KV7.1/KCNE1 alone can be proarrhythmic. Moreover, under conditions with impaired hERG function, upregulation of KV7.1/KCNE1 has been proposed to partially compensate for the loss of hERG [38, 39]. […] To assess if SCRAs also affect KV7.1/KCNE1, we used mammalian CHO cells stably expressing human KV7.1/KCNE1. […] At 10 µM, 7 of the SCRAs caused a significant positive shift in V50 (Fig. 5e), with the largest shift induced by MDMB-[…] (ΔV50 = +10.3 ± 1.6 mV).
Automated patch-clamp recordings were performed at 22 °C.
For the KV7.1/KCNE1 voltage ladder protocol (SI Table VII) the solutions were present for 60 s before recording started. KV7.1/KCNE1 cells were kept at a holding voltage of −90 mV, with brief hyperpolarizing steps to −100 mV for 540 ms (to calculate ohmic leakage). […] The time between compound application and the first voltage protocol was 60 s. Time between sweeps was 15 s. The voltage ladder protocol was executed every 220 s.
For Gmax (rel.), N was set to –1. For ΔV50, N was set to 1.

[4] = best fit, 1 = no reduction of Gmax, APC, 22 °C
[5] = read-out: hERG channel Potency IC50 (Gmax reduction), APC, 22 °C, best fit
[6] = read-out: CB1 receptor Potency EC50
[7] = normalized to maximum of JWH-018, n ≥ 3 (JWH-030 n = 2)
[8] = normalized to median EC50 of JWH-018, n ≥ 3 (JWH-030 n = 2), read-out: CB1 receptor Potency EC50
[9] = CB1 receptor Potency EC50, normalized to median EC50 of JWH-018, n ≥ 3 (JWH-030 n = 2)
[10] = APC, best fit, read-out: KV7.1/KCNE1 channel Potency IC50 (Gmax reduction)
[11] = experimentally observed effect of 10 µM, used in ORd simulation

| SMILES | hERG channel Efficacy (max reduction in Gmax) Gmin [1, 4] | IC50 [1, 5] | KV7.1/KCNE1 channel Efficacy (max reduction in Gmax) Gmin, marked * [3] | CB1 receptor Efficacy Emax [2, 7] | EC50 [2, 8] | KV7.1/KCNE1 channel Efficacy (max reduction in Gmax) Gmin ([3]; best fit) | also measured |
| --- | --- | --- | --- | --- | --- | --- | --- |
| CC(C)[C@H](NC(=O)c1nn(CC2CCCCC2)c2ccccc12)C(N)=O | 0.00 | 51200 nM | 0.72 | – | – | – | CB1 receptor Efficacy Emax [2]: 108 % JWH-018; EC50 [2, 6]: 8.98 nM |
| CC(C)(C)[C@H](NC(=O)c1nn(CC2CCCCC2)c2ccccc12)C(N)=O | 0.13 | 11300 nM | 0.93 | – | – | – | CB1 receptor Efficacy Emax [2]: 107 % JWH-018; EC50 [2, 6]: 3.87 nM |
| COC(=O)[C@@H](NC(=O)c1cn(CCCCF)c2ccccc12)C(C)(C)C [4F-MDMB-BUTICA] | 0.35 | 26200 nM | 0.87 | 115 % JWH-018 | 16.7 nM | – | – |
| O=C(N/N=C1\C(=O)N(CCCCCF)c2ccccc21)c1ccccc1 [5F-BZO-POXIZID] | 0.29 | – | 0.83 | 113 % JWH-018 | – | – | IC50 [1]: 900 nM; effect on Gmax of hERG (in words) [1]: concentration-dependent inhibitory effects on Gmax; also recorded: prominent inhibitory Gmax effects; EC50 [2, 9]: 193 nM; Gmax effect on hERG versus KV7.1/KCNE1 (in words) [3]: effects only on hERG |
| CC(C)(NC(=O)c1nn(CCCCCF)c2ccccc12)c1ccccc1 [5F-Cumyl-PINACA] | 0.00 | – | – | 112 % JWH-018 | – | 0.13 | IC50 [1]: 15500 nM; EC50 [2, 9]: 2.23 nM and 2.2 nM; IC50 [3]: 43500 nM; effect on KV7.1/KCNE1 (in words) ([3]; APC): well-defined concentration–response relationships for both effects |
| CC(C)[C@H](NC(=O)c1cn(CC2CCCCC2)c2ccccc12)C(N)=O [AB-CHMICA] | 0.64 | 8200 nM | – | 110 % JWH-018 | 20.1 nM | 0.46 | IC50 [3, 10]: 16200 nM |
| CC(C)[C@H](NC(=O)c1nn(Cc2ccc(F)cc2)c2ccccc12)C(N)=O [AB-FUBINACA] | 0.00 | 30400 nM | – | 108 % JWH-018 | 8.94 nM | 0.15 | IC50 [3, 10]: 40800 nM |
| C=CCCCn1nc(C(=O)NC(C(N)=O)C(C)(C)C)c2ccccc21 (stereo not shown) [ADB-4en-PINACA] | 0.52 | 9100 nM | 1.13 | 117 % JWH-018 | 17.4 nM | – | effect on Gmax of hERG (in words) [1]: no or limited effects |
| CCCCn1nc(C(=O)NC(C(N)=O)C(C)(C)C)c2cc(Br)ccc21 (stereo not shown) [ADB-5'Br-BUTINACA] | 0.36 | 40100 nM | 0.80 | 110 % JWH-018 | 18 nM | – | – |
| CC(C)(C)[C@H](NC(=O)c1n[nH]c2ccc(Br)cc12)C(N)=O [ADB-5'Br-INACA] | 0.70 | 24500 nM | 1.04 | 111 % JWH-018 | 2290 nM | – | effect on Gmax of hERG (in words) [1]: no or limited effects |
| CC(C)(C)C(NC(=O)c1cn(CC2CCCCC2)c2ccccc12)C(N)=O (stereo not shown) [ADB-CHMICA] | 0.48 | 5200 nM | – | 110 % JWH-018 | 15.7 nM | 0.4 | IC50 [3, 10]: 13400 nM |
| CC(C)(C)[C@H](NC(=O)c1nn(Cc2ccc(F)cc2)c2ccccc12)C(N)=O [ADB-FUBINACA] | 0.25 | 13700 nM | 0.81 | 106 % JWH-018 | 4.97 nM | – | – |
| CCCCCCn1nc(C(=O)NC(C(N)=O)C(C)(C)C)c2ccccc21 (stereo not shown) [ADB-HEXINACA] | 0.037 | – | – | 117 % JWH-018 | – | 0.41 | IC50 [1]: 15800 nM; remaining IKr (hERG Gmax) [1, 11]: 63%; EC50 [2, 9]: 39.4 nM; IC50 [3]: 1990 nM; remaining IKs (KV7.1/KCNE1 Gmax) [3, 11]: 52% |
| O=C(c1cccc2ccccc12)c1cn(CCCCCF)c2ccccc12 [AM-2201] | 0.38 | 1300 nM | 0.92 | 99.7 % JWH-018 | 25.8 nM | – | Gmax effect on hERG versus KV7.1/KCNE1 (in words) [3]: effects only on hERG |
| CCCCCn1nc(C(=O)NC23CC4CC(CC(C4)C2)C3)c2ccccc21 [APINACA] | – | – | 0.88 | 108 % JWH-018 | 30.4 nM | – | hERG channel Efficacy (max reduction in Gmax) Gmin, marked * ([1]; * Greatest efficacy achieved with a concentration between 10 and 30 µM (no fit), 1 = no reduction of Gmax): 0.90; effect on Gmax of hERG (in words) [1]: non-inhibitor |
| C=CCCCN1C(=O)/C(=N\NC(=O)c2ccccc2)c2ccccc21 [BZO-4en-POXIZID] | 0.64 | – | 0.79 | 112 % JWH-018 | – | – | IC50 [1]: 3900 nM; effect on Gmax of hERG (in words) [1]: concentration-dependent inhibitory effects on Gmax; EC50 [2, 9]: 1700 nM |
| CCCCCCN1C(=O)C(=NNC(=O)c2ccccc2)c2ccccc21 [BZO-HEXOXIZID] | – | – | – | 84.3 % JWH-018 | 5130 nM | 0.44 | hERG channel Efficacy (max reduction in Gmax) Gmin, marked ? ([1]; ? Unreliable values (fit failed QC, extrapolated)): 0.00; CB1 EC50 (in words) [2]: low micromolar; IC50 [3, 10]: 3000 nM |
